From patent publication US5880076A, “Compositions comprising glycacarbamate and glycaurea compounds” (Lever Brothers Company, Division of Conopco, Inc., priority 1997, dated 1999) come the findings set out here.

Series [1] can be described thus: Viscosity Modification of Sodium Lauryl Sulfate prototype detergent compositions. Type of series: physicochemical. The conditions noted are these: for Appearance (viscosity) / Viscosity Increase: 15.0% sodium lauryl sulfate; for Viscosity Increase: 22° C. How it is done:
The prototype detergent compositions are as follows:
(§1) Detergent Compositions Comprising Sodium
(§2) Lauryl Sulfate and Glycacarbamate Compounds
N-Dodecyl D-Glucocarbamate
2.0-7.0% Foam Stabilizer/Thickener
(§3) 2.0% Viscosity Cobuilder
(§4) Lauryl Sulfate and Glycaurea Compounds
(§5) The above formulations were prepared by admixing the above ingredients in listed order and heating the mixture to about 80° C. with rapid stirring. The mixture was then cooled to about 40° C., placed in a clear jar and stored at room temperature.
It is well known that the viscosity of a liquid composition comprision of anionic surfactant can be modified by the addition of inorganic salts, such as sodium chloride. However, in the absence of an organic modifier, high levels of salt may be necessary to achieve the required viscosity which may lead to problems of storage at cold temperature or even salting our certain ingrediets. In practice, however, the viscosity of a liquid compositionis modified by the simultaneous addition of thickener and small amounts of inorganic salt (viscosity cobuilder). The combined effect is greater than either one alone. The viscosity of the above prototype detergent compositions comprising various amounts of glycacarbamate/urea compound are as follows: […]

The nature of series [2]: Viscosity Enhancement/Foam Stabilization (Brookfield Digital Viscometer). The conditions noted are these: for Viscosity (Centipoise): 22° C.
Series [3] is described as follows: Water Solubility and Krafft Point (0.1% solution in water, 40° C.).
Source text: The temperature at which a surfactant forms micelles instead of precipitates is referred to as the Krafft point (Tk), and at or below this temperature the solubility of a surfactant becomes equal to its CMC (numerical value at which micelles are formed).
Series [4] can be described thus: Surface Tension Reduction. Type of series: physicochemical. From the text: An important characteristic feature that surfactants have is the tendency for them to absorb at the water/air interface in an oriented manner, thereby altering the interfacial free energy of that surface. The surface free energy per unit area or surface tension (γ), is a measure of this work and may be considered as the minimum amount of work required to bring sufficient surfactant molecules to the surface.

Series [5] in a line: Critical Micelle Concentration (micelle formation). Type of series: physicochemical. An excerpt: The critical micelle concentration (CMC) is defined as the concentration at which a surfactant forms micelles in aqueous solution. […] A necessary and sufficient condition for CMC formation and surface tension reduction is the presence of both hydrophilic and hydrophobic functional groups. The hydrophilic portion provides strong interaction between the surfactant at the interface and with the surrounding water phase. The hydrophobic portion provides spontaneous adsorption of the surfactant at the interface and strong interaction with the adjacent air phase. If any of these functions are not performed, then CMC formation and surface tension reduction will not occur. For significant surface activity, a properly balanced hydrophilic and hydrophobic character is essential.

The nature of series [6]: Clarity Enhancement of prototype detergent compositions. Type of series: physicochemical. Particulars: detergent formulation. On the procedure: The formulations were placed in a clear jar and stored for 1 month. The prototype detergent compositions are as follows:
as §1, §2
N-Coconut D-Glucocarbamate
0.5-4.0% Foam Stabilizer/Thickener
as §4, §5
For a clear detergent formulation to be successful it must have good shelf life and should not become turbid or produce sedimentation upon standing.

The nature of series [7]: Flow aids: water uptake and appearance of intimate admixtures. Type of series: physicochemical. The conditions noted are these: for handling and flowing characteristics (in words): intimate admixtures with ODS, SCMOS, CP-5 or CP-7; for Appearance (flow) / % H2O Uptake: 25° C., 65% R.H.; for % H2O Uptake: based on builder. From the text:
It is known in the are that certain ingredients are hygroscopic in nature and liquify after exposure to moisture after a few days. […] Samples were removed periodically, weighed and returned to R. H. chamber. Percent water uptake was based on the amound of builder present. % H2 O Uptake=grams of water absorbed/grams of builder×100 Identical mixtures of ODS, SCMOS, CP-5 or CP-7 and methyl α-D-glucose-6-O-monolaurate (c12 Mgluc), dodecyl β-D-glucopyranoside (C12 Gluc), dodecyl β-D-maltoside (C12 Malt), D-glucose or D-sorbitol were also prepared and are used for comparison. When the comparative sugar surfactant of monosacchardie are used, percent water uptake was based on the amount of saccharide present. % H2 O Uptake=grams of water absorbed/grams of saccharide×100

Series [8] in a line: Water solubility and turbidity in aqueous personal product and detergent compositions (statement).
Series [9] in a line: Pearlescent/Suspending Action in prototype personal product compositions. Type of series: physicochemical. Particulars: for Appearance (pearlescence/suspending): 15.0% sodium lauryl sulfate, room temperature, 1 month. On the procedure: The formulations were placed in a clear jar and stored for 1 month. The prototype personal product compositions are as follows:
Personal Product Compositions Comprising Sodium
as §2
N-Tallow D-Glucocarbamate
0.5-4.0% Pearlescent/Suspending
as §3, §4, §5
For a pearlecent personal product formulation to be successful it must have good shelf life and should not separate upon standing.

Regarding `O=C[C@H](O)[C@@H](O)[C@H](O)[C@H](O)CO` [D-Glucose, D-glucose, reference compound], in [1] (2.0% thickener), the “Appearance (viscosity)” value is “Purable Liquid” and the “Viscosity Increase” value is “No”. In series [1] (4.0% thickener), the “Appearance (viscosity)” value is reported as “Purable Liquid” and the “Viscosity Increase” value is given as “No”. For the same compound, in series [1] (7.0% thickener), the “Appearance (viscosity)” value was “Purable Liquid” and the “Viscosity Increase” value was “No”. For the same compound, in series [2] (4.0% thickener), the “Foam Stability” value was “No” and the “Viscosity (Centipoise)” value turned out to be 27 Centipoise.

`CCCCCCCCCCCC(=O)N(CCO)CCO` [Lauramide DEA, lauric diethanolamide, reference compound]: in [2] (4.0% thickener), the “Foam Stability” value is on record as “Yes” and the “Viscosity (Centipoise)” value is given as 2376 Centipoise.

Take `CCCCCCCCCCN1C[C@H](O)[C@H]([C@H](O)[C@H](O)CO)OC1=O` [N-Decyl D-Glucocarbamate]: in series [3] (40° C.), the “H2O Solubility at 40° C.” value was “Yes” and the “Krafft point (Tk)” value is “Below Tk”. Further, the “Surface tension reduction (γ) at 40° C.” value in series [4] (40° C.) is “Yes”. The “CMC at 40° C. (micelle formation)” value in series [5] (40° C.) is “Yes”.

Turning to `CCCCCCCCCCN(C[C@H](O)[C@@H](O)[C@H](O)[C@H](O)CO)C(N)=O` [N-Decyl D-Glucourea], in [3] (40° C.), the “H2O Solubility at 40° C.” value is recorded as “Yes” and the “Krafft point (Tk)” value is listed as “Below Tk”. Moreover, in series [4] (40° C.), the “Surface tension reduction (γ) at 40° C.” value is reported as “Yes”. In series [5] (40° C.), the “CMC at 40° C. (micelle formation)” value is on record as “Yes”.

On to `CCCCCCCCCCCCN1C[C@H](O)[C@H]([C@H](O)[C@H](O)CO)OC1=O` [N-Dodecyl D-Glucocarbamate], for which the “clarity (in words)” value in series [6] is given as “clear without sedimentation”. In series [1] (2.0% thickener), the “Appearance (viscosity)” value is “Slightly Viscous” and the “Viscosity Increase” value is reported as “Yes”. Besides, in [1] (4.0% thickener), the “Appearance (viscosity)” value is listed as “Viscous” and the “Viscosity Increase” value is “Yes”. Further, in [1] (7.0% thickener), the “Appearance (viscosity)” value is “Very Viscous” and the “Viscosity Increase” value is recorded as “Yes”. Besides, the “viscosity increase (in words)” value in series [1] (compared with D-glucose) was “increases the viscosity of that composition more effectively than D-glucose”. In series [3] (40° C.), the “H2O Solubility at 40° C.” value is on record as “Yes” and the “Krafft point (Tk)” value is recorded as “Below Tk”. The “Surface tension reduction (γ) at 40° C.” value in [4] (40° C.) is listed as “Yes”. Moreover, in series [2] (4.0% thickener), the “Foam Stability” value was “Yes”, the “viscosity increase from normal viscosity” value is listed as 99-104 times and the “Viscosity (Centipoise)” value stood at 2176 Centipoise. Besides, the “Foam Stability” value in [2] (4.0% thickener, listed as N-dodecyl D-glucocarbamate) is “stabilize foam”. Moreover, the “viscosity enhancement and foam stabilization (comparison in words)” value in series [2] (compared with lauramide DEA, cocoamide MEA, Neodol 91-6 and D-glucose) was “enhance viscosity and stabilze foam compartively to lauramide diethanolamine (DEA), but better than cocoamide menoethanolamine (MEA), Neodol 91-6 (C9 -C11 alcohol ethoxylate with 6 moles of ethylene oxide) and D-glucose”. Further, in series [5] (40° C.), the “CMC at 40° C. (micelle formation)” value is “Yes”. For the same compound, the “handling and flowing characteristics (in words)” value in [7] is “improved the handling and flowing characteristics”.

With `CCCCCCCCCCCCN1C[C@H](O)[C@H]([C@H](O[C@H]2O[C@H](CO)[C@@H](O)[C@H](O)[C@H]2O)[C@H](O)CO)OC1=O` [N-Dodecyl D-Maltocarbamate], in series [3] (40° C.), the “H2O Solubility at 40° C.” value is reported as “Yes” and the “Krafft point (Tk)” value is “Below Tk”. The “Surface tension reduction (γ) at 40° C.” value in series [4] (40° C.) is “Yes”. In series [5] (40° C.), the “CMC at 40° C. (micelle formation)” value is reported as “Yes”. Further, the water solubility entry in [8] (compared to other known glycacarbamate and glycaurea compounds) was “enhanced water solubility”. In addition, in [8] (in aqueous personal product and detergent compositions), the turbidity result is reported as “less turbid”.

In the case of `CCCCCCCCCCCCCCCCN1C[C@H](O)[C@H]([C@H](O)[C@H](O)CO)OC1=O` [N-Hexadecyl D-Glucocarbamate], the “H2O Solubility at 40° C.” value is recorded as “No” in [3] (40° C.) and “insoluble in water” in series [3] (40° C., listed as E). For the same compound, in [3] (40° C.), the “Krafft point (Tk)” value is recorded as “Above Tk”. The “Surface tension reduction (γ) at 40° C.” value is listed as “No” in [4] (40° C.) and “do not significantly reduce the surface tension of water” in series [4] (40° C., listed as E). Moreover, the “CMC at 40° C. (micelle formation)” value was “No” in [5] (40° C.) and “do not form micelles” in series [5] (40° C., listed as E).

Consider `CCCCCCCCCCCCCCCCN(C[C@H](O)[C@@H](O)[C@H](O)[C@H](O)CO)C(N)=O` [N-Hexadecyl D-Glucourea], for which, in series [3] (40° C.), the “H2O Solubility at 40° C.” value is listed as “No”. Moreover, in series [3] (40° C.), the “Krafft point (Tk)” value is reported as “Above Tk”. The “Surface tension reduction (γ) at 40° C.” value in [4] (40° C.) is listed as “No”. In series [5] (40° C.), the “CMC at 40° C. (micelle formation)” value is “No”. Besides, the “handling and flowing characteristics (in words)” value in series [7] is “improved the handling and flowing characteristics”. Besides, the “Appearance (pearlescence/suspending)” value in [9] (0.5% opacifier), in series [9] (1.0% opacifier), in series [9] (2.0% opacifier), in series [9] (3.0% opacifier) and in [9] (4.0% opacifier) was “Pearlescent/Suspending Action” each time. For the same compound, the “pearlescence (in words)” value in series [9] (sodium lauryl sulfate compositions) is “excellent pearlescence”.

On to `CCCCCCCCCCCCCCCCCCN1C[C@H](O)[C@H]([C@H](O)[C@H](O)CO)OC1=O` [N-Octadecyl D-Glucocarbamate], for which the “H2O Solubility at 40° C.” value is listed as “No” in series [3] (40° C.) and “insoluble in water” in series [3] (40° C., listed as F). Also, the “Krafft point (Tk)” value in series [3] (40° C.) is listed as “Above Tk”. Moreover, the “Surface tension reduction (γ) at 40° C.” value in [4] (40° C.) is on record as “No”; in series [4] (40° C., listed as F) it was “do not significantly reduce the surface tension of water”. Moreover, the “CMC at 40° C. (micelle formation)” value is on record as “No” in series [5] (40° C.) and “do not form micelles” in series [5] (40° C., listed as F).

On to `CCCCCCCCN1C[C@H](O)[C@H]([C@H](O)[C@H](O)CO)OC1=O` [N-Octyl D-Glucocarbamate], for which, in series [3] (40° C.), the “H2O Solubility at 40° C.” value is listed as “Yes” and the “Krafft point (Tk)” value is “Below Tk”. Also, in series [4] (40° C.), the “Surface tension reduction (γ) at 40° C.” value is recorded as “Yes”. Also, the “CMC at 40° C. (micelle formation)” value in series [5] (40° C.) is “Yes”.

In the case of `CCCCCCCCCCCCCCN1C[C@H](O)[C@H]([C@H](O)[C@H](O)CO)OC1=O` [N-Tetradecyl D-Glucocarbamate], in [3] (with slight heating), the “H2O Solubility at 40° C.” value is recorded as “Yes” and the “Krafft point (Tk)” value is recorded as “Below Tk”. The “Surface tension reduction (γ) at 40° C.” value in series [4] (with slight heating) is given as “Yes”. For the same compound, in series [5] (with slight heating), the “CMC at 40° C. (micelle formation)” value was “Yes”. The “handling and flowing characteristics (in words)” value in [7] is “improved the handling and flowing characteristics”.

Regarding `O=C([O-])CC(OC(CC(=O)[O-])C(=O)[O-])C(=O)[O-].[Na+].[Na+].[Na+].[Na+]` (centres unmarked) [Na4 ODS, tetrasodium oxydisuccinate, reference compound], in series [7] (4 days), the “Appearance (flow)” value is given as “Liquid” and the “% H2O Uptake” value came to 59%.

With “tetrasodium sulfocarboxymethyloxysuccinate [Na4 SCMOS, reference compound]”, in series [7] (9 days), the “Appearance (flow)” value is recorded as “Sticky Paste” and the “% H2O Uptake” value worked out at 38%.
